Assay results as given in PMC7037321, “Development and Validation of Analytical Method for SH-1242 in the Rat and Mouse Plasma by Liquid Chromatography/Tandem Mass Spectrometry” (Molecules, 2020).
Each block holds one molecule with its values, some of them ahead of it.

Tests used:
[1] = Stability in stock solutions under typical storage conditions; type: physicochemical; conditions: stock solution in methanol (SH-1242 1 mg/mL, IS 500 ng/mL), n = 3
Description: (§1) Stock solutions of SH-1242 and IS were prepared at the concentrations of 1 mg/mL and 500 ng/mL in methanol, respectively. A serial dilution of the SH-1242 stock solution with methanol was carried out to obtain a set of SH-1242 standard solutions, and 5 µL aliquots of these standard solutions were added to 45 µL of blank plasma to prepare SH-1242 calibration standards at concentrations of 1, 2, 5, 10, 20, 50, 100, 200, 500, and 1000 ng/mL for rat plasma and 2, 5, 10, 20, 50, 100, 200, 500, and 1000 ng/mL for mouse plasma. Using similar dilution protocol, a batch of QC samples for SH-1242 was prepared at concentrations of 1 (LLOQ), 2 (low QC), 40 (mid QC), and 800 ng/mL (high QC) for rat plasma and 2 (LLOQ), 4 (low QC), 40 (mid QC), and 800 ng/mL (high QC) for mouse plasma. Samples were then processed according to the procedure described in Section 3.5.
(§2) The stability of SH-1242 and IS was evaluated under various storage and handling conditions. Stock solutions of SH-1242 and IS at concentrations of 1 mg/mL and 500 ng/mL, respectively, were stored at room temperature (25 °C) for 6 h, under refrigerated conditions (4 °C) for 24 h or 2 weeks, or under two different frozen conditions (−20 °C and −80 °C) for 2 weeks. Solutions of SH-1242 were diluted to 50 ng/mL prior to analysis. In addition, QC samples at three different concentrations (2 or 4 ng/mL, 40 ng/mL, and 800 ng/mL) were prepared and processed. The samples were then placed in various handling conditions (i.e., standing in an autosampler (4 °C for 3 days) or under bench-top condition (25 °C for 24 h), or subjected to three freeze-thaw cycles, or long-term refrigeration (4 °C for 2 weeks)). Mean peak areas of stock solutions were compared with those of fresh stock solutions. For QC samples, the results were compared with nominal concentrations. In this study, analytes were considered stable under test conditions when accuracies at each concentration were within 15% of nominal concentration.

[2] = parameters: method as in PMID 11320671; conditions: rats; cited from earlier work
[3] = Pharmacokinetic study after single intravenous administration to mice; type: in vivo; conditions: male, ICR, plasma, single intravenous 0.1 mg/kg, representative (one time point per mouse)
Description: (§3) To test the applicability of the current assay to pharmacokinetic studies, in preclinical animal species, male Sprague-Dawley rats (weighing 250–270 g) or ICR mice (weighing 18–20 g) were used. Prior to the experiment, animals fasted for 12 h with free access to water. SH-1242 was dissolved in a dosing vehicle consisting of dimethyl sulfoxide, PEG400 (Sigma-Aldrich, St. Louis, MO, USA), and normal saline in a ratio of 1:6:3 (v/v/v%), and intravenously bolus-injected to the right femoral vein at 2 mL/kg for rats or to the tail vein at 5 mL/kg for mice. In this study, the intravenous dose of SH-1242 was set at 0.1 mg/kg for both species. Blood samples (approximately 150 µL each) were collected in heparinized tubes via the right femoral artery at 2, 5, 15, 30, 60, 90, 120, 180, 240, 360, and 480 min after the administration to rats (n = 4) and via the retro-orbital plexus at 2, 5, 15, 30, 60, or 120 min after the administration to mice (n = 3 for each time point). For the mouse study, a blood sample was obtained once from each animal, and the animal was sacrificed after collection. Plasma was obtained by centrifuging blood samples at 16,100 g for 5 min at 4 °C and then processed, as described in Section 3.5. The plasma concentration versus time data was analyzed using the non-compartmental method in the WinNonlin software (WinNonlin Professional 5.0.1.; Pharsight, Mountain View, CA, USA) to calculate essential kinetic parameters, such as terminal phase half-life (T1/2), systemic clearance (CL), and steady-state volume of distribution (Vss).

[4] = Stability of QC samples in rat plasma under handling and storage conditions; type: in vitro ADME; conditions: n = 3; for Accuracy (RE%), freeze-thaw stability / Mean concentration, freeze-thaw stability: 3 freeze-thaw cycles; for Accuracy (RE%), long term stability / Mean concentration, long term stability: 4 °C for 2 weeks; for Accuracy (RE%), autosampler stability / Mean concentration, autosampler stability: processed sample, 4 °C for 3 days; for Accuracy (RE%), benchtop stability / Mean concentration, benchtop stability: room temperature (25 °C) for 24 h
Description: as §1, §2

[5] = test system: hypoxia-mediated angiogenesis; parameters: method as in PMID 24875598; conditions: in vitro model of hypoxia-mediated angiogenesis; cited from earlier work
[6] = Stability of QC samples in mouse plasma under handling and storage conditions; type: in vitro ADME; conditions: n = 3; for Accuracy (RE%), freeze-thaw stability / Mean concentration, freeze-thaw stability: 3 freeze-thaw cycles; for Accuracy (RE%), long term stability / Mean concentration, long term stability: 4 °C for 2 weeks; for Accuracy (RE%), autosampler stability / Mean concentration, autosampler stability: processed sample, 4 °C for 3 days; for Accuracy (RE%), benchtop stability / Mean concentration, benchtop stability: room temperature (25 °C) for 24 h
Description: as §1, §2

[7] = Pharmacokinetic study after single intravenous administration to rats; type: in vivo; conditions: male, Sprague-Dawley, rat, plasma, single intravenous 0.1 mg/kg, n = 4, mean ± S.D.
Description: as §3

SMILES: COc1cc2c(cc1OC)[C@@H]1C(=O)c3ccc4c(c3O[C@@H]1CO2)C=CC(C)(C)O4 [deguelin, reference compound]
Relative conc. (%) vs initial ([1]; Refrigerated (4 °C, 2 Weeks)): 92.3% | Relative conc. (%) vs initial ([1]; Refrigerated (4 °C, 24 h)): 105% | Relative conc. (%) vs initial ([1]; Refrigerated (−20 °C, 2 Weeks)): 91.4% | Relative conc. (%) vs initial ([1]; Refrigerated (−80 °C, 2 Weeks)): 86.2% | Relative conc. (%) vs initial ([1]; Room Temp. (6 h)): 101% | CL [2]: 72.7 mL/min/kg | Vss [2]: 30.5 L/kg

AUC(0-inf) [3]: 24 ng·h/mL | MRT [3]: 29.6 min | clearance [3]: 69.4 mL/min/kg | half-life [3]: 26.3 min | Vd ([3]; read-out: Vss): 2.06 L/kg | Accuracy (RE%), freeze-thaw stability ([4]; HQC theoretical 800 ng/mL): –2.50% | Mean concentration, freeze-thaw stability ([4]; HQC theoretical 800 ng/mL): 780 ng/mL | Accuracy (RE%), freeze-thaw stability ([4]; LQC theoretical 2 ng/mL): –7.83% | Mean concentration, freeze-thaw stability ([4]; LQC theoretical 2 ng/mL): 1.84 ng/mL | Accuracy (RE%), freeze-thaw stability ([4]; MQC theoretical 40 ng/mL): 4.92% | Mean concentration, freeze-thaw stability ([4]; MQC theoretical 40 ng/mL): 41.97 ng/mL | Accuracy (RE%), long term stability ([4]; HQC theoretical 800 ng/mL): –8.71% | Mean concentration, long term stability ([4]; HQC theoretical 800 ng/mL): 730 ng/mL | Accuracy (RE%), long term stability ([4]; LQC theoretical 2 ng/mL): 0.833% | Mean concentration, long term stability ([4]; LQC theoretical 2 ng/mL): 2.02 ng/mL | Accuracy (RE%), long term stability ([4]; MQC theoretical 40 ng/mL): –6.75% | Mean concentration, long term stability ([4]; MQC theoretical 40 ng/mL): 37.3 ng/mL | Accuracy (RE%), autosampler stability ([4]; HQC theoretical 800 ng/mL): –3.33% | Mean concentration, autosampler stability ([4]; HQC theoretical 800 ng/mL): 773 ng/mL | Accuracy (RE%), autosampler stability ([4]; LQC theoretical 2 ng/mL): –0.167% | Mean concentration, autosampler stability ([4]; LQC theoretical 2 ng/mL): 2.00 ng/mL | Accuracy (RE%), autosampler stability ([4]; MQC theoretical 40 ng/mL): –2.75% | Mean concentration, autosampler stability ([4]; MQC theoretical 40 ng/mL): 38.9 ng/mL | Accuracy (RE%), benchtop stability ([4]; HQC theoretical 800 ng/mL): –7.88% | Mean concentration, benchtop stability ([4]; HQC theoretical 800 ng/mL): 737 ng/mL | Accuracy (RE%), benchtop stability ([4]; LQC theoretical 2 ng/mL): –6.33% | Mean concentration, benchtop stability ([4]; LQC theoretical 2 ng/mL): 1.87 ng/mL | Accuracy (RE%), benchtop stability ([4]; MQC theoretical 40 ng/mL): –6.83% | Mean concentration, benchtop stability ([4]; MQC theoretical 40 ng/mL): 37.3 ng/mL | Relative conc. (%) vs initial ([1]; Refrigerated (4 °C, 2 Weeks)): 85.2% | Relative conc. (%) vs initial ([1]; Refrigerated (4 °C, 24 h)): 105% | Relative conc. (%) vs initial ([1]; Refrigerated (−20 °C, 2 Weeks)): 89.1% | Relative conc. (%) vs initial ([1]; Refrigerated (−80 °C, 2 Weeks)): 90.8% | Relative conc. (%) vs initial ([1]; Room Temp. (6 h)): 109% | Accuracy (RE%), freeze-thaw stability ([6]; HQC theoretical 800 ng/mL): 5.00% | Mean concentration, freeze-thaw stability ([6]; HQC theoretical 800 ng/mL): 840 ng/mL | Accuracy (RE%), freeze-thaw stability ([6]; LQC theoretical 4 ng/mL): 11.3% | Mean concentration, freeze-thaw stability ([6]; LQC theoretical 4 ng/mL): 4.45 ng/mL | Accuracy (RE%), freeze-thaw stability ([6]; MQC theoretical 40 ng/mL): 6.00% | Mean concentration, freeze-thaw stability ([6]; MQC theoretical 40 ng/mL): 42.4 ng/mL | Accuracy (RE%), long term stability ([6]; HQC theoretical 800 ng/mL): 8.08% | Mean concentration, long term stability ([6]; HQC theoretical 800 ng/mL): 865 ng/mL | Accuracy (RE%), long term stability ([6]; LQC theoretical 4 ng/mL): –4.08% | Mean concentration, long term stability ([6]; LQC theoretical 4 ng/mL): 3.84 ng/mL | Accuracy (RE%), long term stability ([6]; MQC theoretical 40 ng/mL): 12.0% | Mean concentration, long term stability ([6]; MQC theoretical 40 ng/mL): 44.8 ng/mL | Accuracy (RE%), autosampler stability ([6]; HQC theoretical 800 ng/mL): 7.83% | Mean concentration, autosampler stability ([6]; HQC theoretical 800 ng/mL): 863 ng/mL | Accuracy (RE%), autosampler stability ([6]; LQC theoretical 4 ng/mL): 4.67% | Mean concentration, autosampler stability ([6]; LQC theoretical 4 ng/mL): 4.19 ng/mL | Accuracy (RE%), autosampler stability ([6]; MQC theoretical 40 ng/mL): 6.50% | Mean concentration, autosampler stability ([6]; MQC theoretical 40 ng/mL): 42.6 ng/mL | Accuracy (RE%), benchtop stability ([6]; HQC theoretical 800 ng/mL): 1.25% | Mean concentration, benchtop stability ([6]; HQC theoretical 800 ng/mL): 810 ng/mL | Accuracy (RE%), benchtop stability ([6]; LQC theoretical 4 ng/mL): 5.25% | Mean concentration, benchtop stability ([6]; LQC theoretical 4 ng/mL): 4.21 ng/mL | Accuracy (RE%), benchtop stability ([6]; MQC theoretical 40 ng/mL): 4.25% | Mean concentration, benchtop stability ([6]; MQC theoretical 40 ng/mL): 41.7 ng/mL | AUC(0-inf) [7]: 55.8 ng·h/mL | MRT [7]: 2.48 h | clearance [7]: 30.5 ± 4.49 mL/min/kg | half-life [7]: 146 ± 59 min | Vd ([7]; read-out: Vss): 4.38 ± 0.716 L/kg
SMILES: COc1ccc(CC(=O)c2ccc3c(c2OC)C=CC(C)(C)O3)cc1OC [SH-1242, 2-(3,4-dimethoxyphenyl)-1-(5-methoxy-2,2-dimethyl-2H-chromen-6-yl)ethanone]
effective concentration (antiangiogenic activity) [5]: ~10 nM
